Data: PMC3914206

Key:
Assay type in all cases: binding
[1] = biological target: T1, panel of 442 kinases (Homo sapiens, UniProt Q8N568); settings: Compound Concentration 10 µM
T1 construct: purchased KINOMEscan
From the text: (§1) We assessed the selectivity of members of this scaffold using the KINOMEscan methodology across a near comprehensive panel of 442 kinases [[18,27]].

[2] = biological target: T2, panel of 442 kinases (Homo sapiens, UniProt Q96L34); settings: Compound Concentration 10 µM
T2 construct: purchased KINOMEscan
T2 sequence (Q96L34 1-752): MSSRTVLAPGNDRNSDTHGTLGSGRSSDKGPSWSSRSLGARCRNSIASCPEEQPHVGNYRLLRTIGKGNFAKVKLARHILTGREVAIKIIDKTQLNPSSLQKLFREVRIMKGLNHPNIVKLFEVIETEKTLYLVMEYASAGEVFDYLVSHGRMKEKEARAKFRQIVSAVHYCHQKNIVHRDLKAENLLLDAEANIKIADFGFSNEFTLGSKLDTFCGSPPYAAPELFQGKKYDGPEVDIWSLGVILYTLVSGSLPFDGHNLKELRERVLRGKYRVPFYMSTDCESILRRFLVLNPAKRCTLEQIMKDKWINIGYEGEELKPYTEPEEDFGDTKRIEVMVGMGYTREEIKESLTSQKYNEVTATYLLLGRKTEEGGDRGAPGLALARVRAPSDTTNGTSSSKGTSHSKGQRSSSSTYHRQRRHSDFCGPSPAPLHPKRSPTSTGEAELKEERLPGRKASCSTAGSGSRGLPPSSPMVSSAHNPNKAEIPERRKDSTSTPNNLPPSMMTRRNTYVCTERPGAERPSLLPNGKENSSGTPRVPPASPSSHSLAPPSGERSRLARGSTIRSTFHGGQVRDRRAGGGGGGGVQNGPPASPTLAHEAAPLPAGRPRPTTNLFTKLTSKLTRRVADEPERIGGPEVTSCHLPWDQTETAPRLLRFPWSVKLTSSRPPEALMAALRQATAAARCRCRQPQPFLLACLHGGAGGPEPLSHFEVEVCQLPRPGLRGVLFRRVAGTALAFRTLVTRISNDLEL
From the text: as §1

[3] = biological target: T3, panel of 442 kinases (Homo sapiens, UniProt Q9UPE1); settings: kinase SRPK3; compound concentration 10 µM
T3 construct: purchased KINOMEscan
From the text: as §1

T3 sequence (Q9UPE1 whole entry): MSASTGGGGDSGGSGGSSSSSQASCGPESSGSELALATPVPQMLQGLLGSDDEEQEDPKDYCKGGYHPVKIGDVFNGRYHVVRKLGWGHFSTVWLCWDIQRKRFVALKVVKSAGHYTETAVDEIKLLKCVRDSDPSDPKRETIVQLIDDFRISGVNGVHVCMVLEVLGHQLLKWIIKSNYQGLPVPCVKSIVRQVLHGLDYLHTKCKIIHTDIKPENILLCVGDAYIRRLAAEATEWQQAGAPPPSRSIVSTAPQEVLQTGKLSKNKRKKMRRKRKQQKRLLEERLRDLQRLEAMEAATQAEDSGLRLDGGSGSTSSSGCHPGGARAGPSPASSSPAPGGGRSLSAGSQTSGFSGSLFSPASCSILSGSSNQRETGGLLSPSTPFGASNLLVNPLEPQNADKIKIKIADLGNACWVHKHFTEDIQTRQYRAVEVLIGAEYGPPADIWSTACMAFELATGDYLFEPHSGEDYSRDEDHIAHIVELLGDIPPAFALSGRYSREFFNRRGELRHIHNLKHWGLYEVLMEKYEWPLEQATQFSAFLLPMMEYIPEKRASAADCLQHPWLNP
T1 sequence (Q8N568 whole entry): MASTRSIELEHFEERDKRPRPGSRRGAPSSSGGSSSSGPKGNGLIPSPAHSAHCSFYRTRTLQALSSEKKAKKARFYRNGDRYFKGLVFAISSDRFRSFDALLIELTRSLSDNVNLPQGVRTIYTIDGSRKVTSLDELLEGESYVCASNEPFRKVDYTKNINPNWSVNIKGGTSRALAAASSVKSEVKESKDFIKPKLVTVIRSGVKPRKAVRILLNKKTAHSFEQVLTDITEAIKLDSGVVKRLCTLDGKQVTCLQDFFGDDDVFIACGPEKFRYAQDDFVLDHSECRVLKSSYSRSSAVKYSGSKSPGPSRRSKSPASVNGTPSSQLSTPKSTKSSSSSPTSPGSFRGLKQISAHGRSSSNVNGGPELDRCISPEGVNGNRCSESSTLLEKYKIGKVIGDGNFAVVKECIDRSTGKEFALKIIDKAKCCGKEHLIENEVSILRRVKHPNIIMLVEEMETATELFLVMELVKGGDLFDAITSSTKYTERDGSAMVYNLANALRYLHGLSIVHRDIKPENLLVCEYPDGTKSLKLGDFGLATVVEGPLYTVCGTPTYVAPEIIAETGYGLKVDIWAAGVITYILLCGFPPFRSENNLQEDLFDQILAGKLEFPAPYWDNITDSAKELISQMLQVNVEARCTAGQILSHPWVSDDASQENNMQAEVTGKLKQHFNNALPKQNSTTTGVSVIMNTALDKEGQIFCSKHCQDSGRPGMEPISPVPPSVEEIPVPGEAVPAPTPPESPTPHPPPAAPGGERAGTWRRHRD

## COc1cc(C(=O)N2CCC(N3CCN(C)CC3)CC2)ccc1Nc1ncc2c(n1)N(C)c1ccccc1C(=O)N2C [15 (LRRK2-IN-1)]
[1]
  KINOMEscan: DCAMKL2: 0.45
[2]
  KINOMEscan: MARK4: 78
[3]
  % Ctrl, SRPK3: 72 % Ctrl

## COc1cc(C(=O)N2CCC(N3CCN(C)CC3)CC2)ccc1Nc1ncc2c(n1)N1CCc3cccc(c31)C(=O)N2C [Compound 24]
[1]
  KINOMEscan: DCAMKL2: 1.2
[2]
  KINOMEscan: MARK4: 87
[3]
  % Ctrl, SRPK3: 91 % Ctrl

## COc1cc(C(=O)N2CCC(N3CCN(C)CC3)CC2)ccc1Nc1ncc2c(n1)N(C1CCCC1)c1ccccc1C(=O)N2C [Compound 25, 11-cyclopentyl-2-((2-methoxy-4-(4-(4-methylpiperazin-1-yl)piperidine-1-carbonyl)phenyl)amino)-5-methyl-5H-benzo[e]pyrimido[5,4-b][1,4]diazepin-6(11H)-one]
[1]
  KINOMEscan: DCAMKL2: 1.1
[2]
  KINOMEscan: MARK4: 100
[3]
  % Ctrl, SRPK3: 91 % Ctrl

## CCOc1cc(C(=O)N2CCC(N3CCN(C)CC3)CC2)ccc1Nc1ncc2c(n1)N(C1CCCC1)c1ccccc1C(=O)N2C [Compound 26]
[1]
  KINOMEscan: DCAMKL2: 3.6
[2]
  KINOMEscan: MARK4: 100
[3]
  % Ctrl, SRPK3: 100 % Ctrl
